PubChem BioAssay AID1963984 (Molecular Pharmacology Branch, DTP, NCI, 2024)

Tested on: 233499-124-R-J3-PDC spheroids with HUVEC/MSC, viability
Experiment: Anticancer human tumor 233499-124-R-J3-PDC patient-derived colon adenocarcinoma cell line growth inhibition [PI3K]
Conditions: for IC50: curve of first compound; for viability, T/C: stronger effect = lower value
Method in brief: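 Tumor cells were combined with HUVEC and MSCs into spheroids, then dosed with PI3K-inhibitor combinations over half-log ranges capped near clinical Cmax or 10 microM.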

[1] = second compound 0.0316 µM, first compound 0.000316 µM
[2] = second compound 0.0316 µM, first compound 0.001 µM
[3] = second compound 0.0316 µM, first compound 0.00316 µM
[4] = second compound 0.0316 µM, first compound 0.01 µM
[5] = second compound 0.0316 µM, first compound 0.0316 µM
[6] = second compound 0.0316 µM, first compound 0.1 µM
[7] = second compound 0.1 µM, first compound 0.000316 µM
[8] = second compound 0.1 µM, first compound 0.001 µM
[9] = second compound 0.1 µM, first compound 0.00316 µM
[10] = second compound 0.1 µM, first compound 0.01 µM
[11] = second compound 0.1 µM, first compound 0.0316 µM
[12] = second compound 0.1 µM, first compound 0.1 µM
[13] = second compound 0.316 µM, first compound 0.000316 µM
[14] = second compound 0.316 µM, first compound 0.001 µM
[15] = second compound 0.316 µM, first compound 0.00316 µM
[16] = second compound 0.316 µM, first compound 0.01 µM
[17] = second compound 0.316 µM, first compound 0.0316 µM
[18] = second compound 0.316 µM, first compound 0.1 µM
[19] = second compound 1 µM, first compound 0.000316 µM
[20] = second compound 1 µM, first compound 0.001 µM
[21] = second compound 1 µM, first compound 0.00316 µM
[22] = second compound 1 µM, first compound 0.01 µM
[23] = second compound 1 µM, first compound 0.0316 µM
[24] = second compound 1 µM, first compound 0.1 µM
[25] = second compound 3.16 µM, first compound 0.000316 µM
[26] = second compound 3.16 µM, first compound 0.001 µM
[27] = second compound 3.16 µM, first compound 0.00316 µM
[28] = second compound 3.16 µM, first compound 0.01 µM
[29] = second compound 3.16 µM, first compound 0.0316 µM
[30] = second compound 3.16 µM, first compound 0.1 µM
[31] = second compound 10 µM, first compound 0.000316 µM
[32] = second compound 10 µM, first compound 0.001 µM
[33] = second compound 10 µM, first compound 0.00316 µM
[34] = second compound 10 µM, first compound 0.01 µM
[35] = second compound 10 µM, first compound 0.0316 µM
[36] = second compound 10 µM, first compound 0.1 µM
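Also: spheroids exposed to agents for seven days before readout.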
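For viability, T/C in this document: percent viability relative to DMSO vehicle control taken as 100%.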

`CC(=O)c1c(C)c2cnc(Nc3ccc(N4CCNCC4)cn3)nc2n(C2CCCC2)c1=O` + Cc1nc(NC(=O)N2CCCC2C(N)=O)sc1-c1ccnc(C(C)(C)C(F)(F)F)c1 gave an IC50 (second compound 0.0316 µM) greater than 100 nM, an IC50 (second compound 0.1 µM) greater than 100 nM and an IC50 (second compound 0.316 µM) of 65.9 nM. For the same compound, the IC50 (second compound 1 µM) was 58.2 nM, the IC50 (second compound 3.16 µM) was 42 nM and the IC50 (second compound 10 µM) was less than 0.316 nM. The viability, T/C [1] was 98.6%, the viability, T/C [2] was 93.2% and the viability, T/C [3] was 65.5%. It also gave a viability, T/C [4] of 79.9%, a viability, T/C [5] of 99.6% and a viability, T/C [6] of 79.1%. The viability, T/C [7] was 90.2%, the viability, T/C [8] was 90.2% and the viability, T/C [9] was 74.7%. The viability, T/C [10] was 98%, the viability, T/C [11] was 83% and the viability, T/C [12] was 54.5%. For the same compound, the viability, T/C [13] was 77.7%, the viability, T/C [14] was 89.7% and the viability, T/C [15] was 86.6%. It also gave a viability, T/C [16] of 75%, a viability, T/C [17] of 58.5% and a viability, T/C [18] of 45.3%. For the same compound, the viability, T/C [19] was 79.5%, the viability, T/C [20] was 67.9% and the viability, T/C [21] was 80.6%. It also gave a viability, T/C [22] of 70%, a viability, T/C [23] of 74.9% and a viability, T/C [24] of 28.3%. The viability, T/C [25] was 53.3%, the viability, T/C [26] was 57.2% and the viability, T/C [27] was 76.4%. It also gave a viability, T/C [28] of 37.5%, a viability, T/C [29] of 61.8% and a viability, T/C [30] of 28.2%. The viability, T/C [31] was 27.8%, the viability, T/C [32] was 26.9% and the viability, T/C [33] was 27.5%. The viability, T/C [34] was 34.6%, the viability, T/C [35] was 36.9% and the viability, T/C [36] was 28%.

`CC(C)n1nc(-c2ccc3oc(N)nc3c2)c2c(N)ncnc21` + Cc1nc(NC(=O)N2CCCC2C(N)=O)sc1-c1ccnc(C(C)(C)C(F)(F)F)c1 showed an IC50 (second compound 0.0316 µM) greater than 100 nM, an IC50 (second compound 0.1 µM) of 85.9 nM and an IC50 (second compound 0.316 µM) greater than 100 nM. The IC50 (second compound 1 µM) was 37.5 nM, the IC50 (second compound 3.16 µM) was 5.81 nM and the IC50 (second compound 10 µM) was less than 0.316 nM. It also gave a viability, T/C [1] of 103%, a viability, T/C [2] of 90.9% and a viability, T/C [3] of 103%. For the same compound, the viability, T/C [4] was 64.7%, the viability, T/C [5] was 92.6% and the viability, T/C [6] was 55.2%. The viability, T/C [7] was 99.4%, the viability, T/C [8] was 92.4% and the viability, T/C [9] was 54.8%. The viability, T/C [10] was 86%, the viability, T/C [11] was 84% and the viability, T/C [12] was 45.1%. It also gave a viability, T/C [13] of 89.9%, a viability, T/C [14] of 81% and a viability, T/C [15] of 90.1%. For the same compound, the viability, T/C [16] was 79.1%, the viability, T/C [17] was 67.7% and the viability, T/C [18] was 53.9%. For the same compound, the viability, T/C [19] was 68%, the viability, T/C [20] was 71.8% and the viability, T/C [21] was 82.1%. The viability, T/C [22] was 62.4%, the viability, T/C [23] was 55.3% and the viability, T/C [24] was 25.2%. The viability, T/C [25] was 61.2%, the viability, T/C [26] was 50.6% and the viability, T/C [27] was 73%. The viability, T/C [28] was 39.7%, the viability, T/C [29] was 43.7% and the viability, T/C [30] was 30.7%. The viability, T/C [31] was 43.7%, the viability, T/C [32] was 26.4% and the viability, T/C [33] was 29.7%. It also gave a viability, T/C [34] of 26.3%, a viability, T/C [35] of 24.5% and a viability, T/C [36] of 6.69%.
